According to ChEMBL document CHEMBL4507319 (2021):

Experiments:
[1] = molecular target: Serine/threonine-protein kinase 36 (Homo sapiens) (UniProt Q9NRP7); settings: Compound concentration 1000.0 nM
[2] = system: Receptor-type tyrosine-protein kinase FLT3 (Homo sapiens), P36888 [D835Y]; settings: Compound concentration 1000.0 nM
[3] = molecular target: Mitogen-activated protein kinase kinase kinase 15 (Homo sapiens) (UniProt Q6ZN16); settings: Compound concentration 1000.0 nM
[4] = molecular target: 5-hydroxytryptamine receptor 3A (Homo sapiens) (UniProt P46098); settings: Compound concentration 10.0 uM
[5] = molecular target: T1, Beta-adrenergic receptor kinase 1 (Homo sapiens) (UniProt P25098); settings: Compound concentration 1000.0 nM
T1 sequence (whole entry): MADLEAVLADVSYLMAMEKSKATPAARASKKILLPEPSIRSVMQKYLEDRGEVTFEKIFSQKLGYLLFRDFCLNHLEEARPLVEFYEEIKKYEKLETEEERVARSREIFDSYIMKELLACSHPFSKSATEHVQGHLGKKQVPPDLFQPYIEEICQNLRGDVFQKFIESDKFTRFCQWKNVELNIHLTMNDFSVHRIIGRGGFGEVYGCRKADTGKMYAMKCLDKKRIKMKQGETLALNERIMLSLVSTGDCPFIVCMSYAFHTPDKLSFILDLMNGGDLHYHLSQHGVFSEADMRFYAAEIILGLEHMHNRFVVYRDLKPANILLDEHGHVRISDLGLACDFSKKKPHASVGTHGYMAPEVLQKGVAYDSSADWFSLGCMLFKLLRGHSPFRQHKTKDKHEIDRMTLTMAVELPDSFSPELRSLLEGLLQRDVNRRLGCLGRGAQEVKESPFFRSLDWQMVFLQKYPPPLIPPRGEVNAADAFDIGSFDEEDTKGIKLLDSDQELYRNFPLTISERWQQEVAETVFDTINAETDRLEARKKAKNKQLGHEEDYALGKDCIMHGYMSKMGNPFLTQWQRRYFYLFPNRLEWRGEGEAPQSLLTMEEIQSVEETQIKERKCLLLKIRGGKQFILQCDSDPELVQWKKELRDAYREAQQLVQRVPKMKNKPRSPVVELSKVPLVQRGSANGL

[6] = molecular target: Mitogen-activated protein kinase kinase kinase 9 (Homo sapiens) (UniProt P80192); settings: Compound concentration 1000.0 nM
[7] = molecular target: T2, Mitogen-activated protein kinase kinase kinase 2 (Homo sapiens) (UniProt Q9Y2U5); settings: Compound concentration 1000.0 nM
T2 sequence (whole entry): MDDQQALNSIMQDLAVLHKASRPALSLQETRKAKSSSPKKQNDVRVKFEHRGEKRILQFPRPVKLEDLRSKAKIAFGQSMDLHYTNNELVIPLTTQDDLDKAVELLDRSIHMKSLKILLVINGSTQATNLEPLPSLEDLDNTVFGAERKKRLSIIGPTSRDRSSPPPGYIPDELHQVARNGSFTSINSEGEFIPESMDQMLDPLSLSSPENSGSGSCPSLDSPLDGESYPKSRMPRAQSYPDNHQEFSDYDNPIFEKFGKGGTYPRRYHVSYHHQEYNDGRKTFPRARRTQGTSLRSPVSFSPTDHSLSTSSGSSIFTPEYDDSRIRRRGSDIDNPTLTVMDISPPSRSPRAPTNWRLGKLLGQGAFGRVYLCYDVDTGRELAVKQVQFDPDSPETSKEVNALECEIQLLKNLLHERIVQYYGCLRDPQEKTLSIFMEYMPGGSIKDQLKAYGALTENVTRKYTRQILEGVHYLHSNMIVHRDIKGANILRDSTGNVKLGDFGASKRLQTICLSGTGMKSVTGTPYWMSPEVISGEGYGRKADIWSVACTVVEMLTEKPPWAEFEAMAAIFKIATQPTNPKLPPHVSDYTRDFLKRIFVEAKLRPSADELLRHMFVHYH

[8] = molecular target: BMP-2-inducible protein kinase (Homo sapiens) (UniProt Q9NSY1); settings: Compound concentration 1000.0 nM
[9] = molecular target: Dual specificity protein kinase CLK4 (Homo sapiens) (UniProt Q9HAZ1); settings: Compound concentration 1000.0 nM
[10] = molecular target: Serine/threonine-protein kinase MARK2 (Homo sapiens) (UniProt Q7KZI7); settings: Compound concentration 1000.0 nM
[11] = molecular target: Macrophage-stimulating protein receptor (Homo sapiens) (UniProt Q04912); settings: Compound concentration 1000.0 nM
[12] = molecular target: Protein kinase C iota type (Homo sapiens) (UniProt P41743); settings: Compound concentration 1000.0 nM
[13] = molecular target: Alpha-2B adrenergic receptor (Homo sapiens) (UniProt P18089); settings: Compound concentration 10.0 uM
[14] = molecular target: Dual specificity mitogen-activated protein kinase kinase 3 (Homo sapiens) (UniProt P46734); settings: Compound concentration 1000.0 nM
[15] = molecular target: Mitogen-activated protein kinase kinase kinase 14 (Homo sapiens) (UniProt Q99558); settings: Compound concentration 1000.0 nM
[16] = molecular target: T3, Serine/threonine-protein kinase Chk1 (Homo sapiens) (UniProt O14757); settings: Compound concentration 1000.0 nM
T3 sequence (whole entry): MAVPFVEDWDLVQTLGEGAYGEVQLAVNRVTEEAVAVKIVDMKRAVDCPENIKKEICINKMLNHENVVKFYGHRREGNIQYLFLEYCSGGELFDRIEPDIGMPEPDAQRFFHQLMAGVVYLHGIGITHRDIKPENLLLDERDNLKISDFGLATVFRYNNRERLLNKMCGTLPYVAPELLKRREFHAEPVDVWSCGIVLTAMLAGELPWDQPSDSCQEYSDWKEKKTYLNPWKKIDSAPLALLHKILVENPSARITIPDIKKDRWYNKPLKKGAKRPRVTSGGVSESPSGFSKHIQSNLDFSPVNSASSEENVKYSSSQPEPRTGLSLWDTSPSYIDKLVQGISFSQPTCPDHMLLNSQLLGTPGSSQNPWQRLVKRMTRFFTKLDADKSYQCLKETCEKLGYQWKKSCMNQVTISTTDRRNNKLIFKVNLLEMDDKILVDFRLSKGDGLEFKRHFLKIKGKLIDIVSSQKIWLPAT

[17] = molecular target: Serine/threonine-protein kinase 35 (Homo sapiens) (UniProt Q8TDR2); settings: Compound concentration 1000.0 nM
[18] = molecular target: Cyclin-dependent kinase 4 (Homo sapiens) (UniProt P11802); settings: Compound concentration 1000.0 nM
[19] = molecular target: Delta-type opioid receptor (Homo sapiens) (UniProt P41143); settings: Compound concentration 10.0 uM

Chain of Cyclin-dependent kinase 4 (Homo sapiens) (P11802 whole entry): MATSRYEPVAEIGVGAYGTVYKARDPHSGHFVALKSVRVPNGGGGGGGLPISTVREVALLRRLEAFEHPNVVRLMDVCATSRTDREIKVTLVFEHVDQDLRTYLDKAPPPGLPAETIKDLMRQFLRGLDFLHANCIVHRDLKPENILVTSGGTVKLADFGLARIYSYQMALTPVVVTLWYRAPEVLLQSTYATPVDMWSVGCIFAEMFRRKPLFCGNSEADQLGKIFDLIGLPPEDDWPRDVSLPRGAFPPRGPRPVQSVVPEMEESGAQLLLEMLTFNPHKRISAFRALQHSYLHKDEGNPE
Chain of Mitogen-activated protein kinase kinase kinase 9 (Homo sapiens) (P80192 whole entry, looked up): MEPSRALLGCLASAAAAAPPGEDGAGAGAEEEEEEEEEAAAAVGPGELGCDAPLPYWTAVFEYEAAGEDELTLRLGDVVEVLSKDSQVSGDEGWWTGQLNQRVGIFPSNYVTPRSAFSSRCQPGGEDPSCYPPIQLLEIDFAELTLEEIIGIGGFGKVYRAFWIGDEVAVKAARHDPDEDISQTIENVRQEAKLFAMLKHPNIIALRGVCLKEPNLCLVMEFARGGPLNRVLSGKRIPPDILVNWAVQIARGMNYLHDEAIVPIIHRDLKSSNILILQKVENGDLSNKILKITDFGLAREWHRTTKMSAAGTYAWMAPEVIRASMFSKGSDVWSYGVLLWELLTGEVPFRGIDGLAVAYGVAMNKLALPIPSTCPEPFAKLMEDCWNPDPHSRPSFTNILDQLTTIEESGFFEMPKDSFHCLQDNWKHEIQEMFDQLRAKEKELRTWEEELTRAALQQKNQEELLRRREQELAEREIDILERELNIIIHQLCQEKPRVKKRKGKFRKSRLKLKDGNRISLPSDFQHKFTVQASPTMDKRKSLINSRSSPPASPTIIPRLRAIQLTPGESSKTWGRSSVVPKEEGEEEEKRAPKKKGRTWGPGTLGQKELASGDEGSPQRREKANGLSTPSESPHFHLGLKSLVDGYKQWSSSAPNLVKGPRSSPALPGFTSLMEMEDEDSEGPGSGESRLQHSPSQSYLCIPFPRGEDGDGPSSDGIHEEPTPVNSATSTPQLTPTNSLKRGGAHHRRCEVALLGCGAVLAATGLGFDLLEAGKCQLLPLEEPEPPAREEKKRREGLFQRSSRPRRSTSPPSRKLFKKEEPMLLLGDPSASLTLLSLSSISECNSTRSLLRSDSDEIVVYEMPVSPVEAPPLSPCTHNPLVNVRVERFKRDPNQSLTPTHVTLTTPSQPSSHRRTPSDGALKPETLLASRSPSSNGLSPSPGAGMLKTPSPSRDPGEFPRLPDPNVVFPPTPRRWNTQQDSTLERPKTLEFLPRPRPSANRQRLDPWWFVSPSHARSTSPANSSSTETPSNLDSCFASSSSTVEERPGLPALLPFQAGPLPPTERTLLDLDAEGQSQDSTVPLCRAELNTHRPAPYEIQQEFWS
Chain of Protein kinase C iota type (Homo sapiens) (P41743 whole entry): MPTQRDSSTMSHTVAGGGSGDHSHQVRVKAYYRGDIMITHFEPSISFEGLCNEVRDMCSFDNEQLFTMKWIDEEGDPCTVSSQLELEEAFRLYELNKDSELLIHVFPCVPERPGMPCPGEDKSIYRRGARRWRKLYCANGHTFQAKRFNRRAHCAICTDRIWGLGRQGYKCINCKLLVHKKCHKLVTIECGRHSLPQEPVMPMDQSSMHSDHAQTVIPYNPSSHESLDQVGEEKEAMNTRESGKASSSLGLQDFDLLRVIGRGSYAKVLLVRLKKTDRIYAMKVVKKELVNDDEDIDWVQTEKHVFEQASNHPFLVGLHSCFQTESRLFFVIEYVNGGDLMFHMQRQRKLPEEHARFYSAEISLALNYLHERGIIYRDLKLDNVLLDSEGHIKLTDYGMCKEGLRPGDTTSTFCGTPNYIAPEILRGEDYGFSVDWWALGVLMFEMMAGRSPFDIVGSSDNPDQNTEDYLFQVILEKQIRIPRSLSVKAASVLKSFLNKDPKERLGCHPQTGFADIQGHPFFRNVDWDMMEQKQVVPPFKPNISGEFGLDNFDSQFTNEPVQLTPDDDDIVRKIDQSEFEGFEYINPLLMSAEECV
Chain of Mitogen-activated protein kinase kinase kinase 14 (Homo sapiens) (Q99558 whole entry, looked up): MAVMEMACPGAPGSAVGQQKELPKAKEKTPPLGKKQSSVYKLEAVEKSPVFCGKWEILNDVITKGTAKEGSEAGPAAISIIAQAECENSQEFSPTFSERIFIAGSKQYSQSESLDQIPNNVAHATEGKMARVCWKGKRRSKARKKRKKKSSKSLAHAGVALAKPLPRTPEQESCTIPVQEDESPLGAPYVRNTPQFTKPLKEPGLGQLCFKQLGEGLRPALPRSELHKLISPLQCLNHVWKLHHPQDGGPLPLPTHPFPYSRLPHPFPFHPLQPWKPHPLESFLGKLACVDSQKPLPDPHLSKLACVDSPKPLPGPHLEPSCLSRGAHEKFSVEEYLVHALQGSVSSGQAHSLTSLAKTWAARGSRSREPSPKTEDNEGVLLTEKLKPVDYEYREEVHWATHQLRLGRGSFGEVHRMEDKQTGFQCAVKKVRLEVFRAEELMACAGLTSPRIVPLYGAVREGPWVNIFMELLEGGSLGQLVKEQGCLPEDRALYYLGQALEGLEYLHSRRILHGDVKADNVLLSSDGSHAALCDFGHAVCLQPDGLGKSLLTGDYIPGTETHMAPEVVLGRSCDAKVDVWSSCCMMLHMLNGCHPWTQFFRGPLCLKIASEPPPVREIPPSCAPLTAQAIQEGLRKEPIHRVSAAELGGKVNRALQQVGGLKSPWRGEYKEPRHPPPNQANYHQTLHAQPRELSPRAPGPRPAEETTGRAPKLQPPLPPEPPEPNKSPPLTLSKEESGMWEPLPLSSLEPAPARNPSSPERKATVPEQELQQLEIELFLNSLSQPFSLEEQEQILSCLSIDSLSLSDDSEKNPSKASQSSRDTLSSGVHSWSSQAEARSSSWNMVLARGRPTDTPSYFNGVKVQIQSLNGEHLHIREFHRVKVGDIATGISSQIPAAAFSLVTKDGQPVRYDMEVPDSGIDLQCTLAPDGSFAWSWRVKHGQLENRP
Chain of Dual specificity protein kinase CLK4 (Homo sapiens) (Q9HAZ1 whole entry, looked up): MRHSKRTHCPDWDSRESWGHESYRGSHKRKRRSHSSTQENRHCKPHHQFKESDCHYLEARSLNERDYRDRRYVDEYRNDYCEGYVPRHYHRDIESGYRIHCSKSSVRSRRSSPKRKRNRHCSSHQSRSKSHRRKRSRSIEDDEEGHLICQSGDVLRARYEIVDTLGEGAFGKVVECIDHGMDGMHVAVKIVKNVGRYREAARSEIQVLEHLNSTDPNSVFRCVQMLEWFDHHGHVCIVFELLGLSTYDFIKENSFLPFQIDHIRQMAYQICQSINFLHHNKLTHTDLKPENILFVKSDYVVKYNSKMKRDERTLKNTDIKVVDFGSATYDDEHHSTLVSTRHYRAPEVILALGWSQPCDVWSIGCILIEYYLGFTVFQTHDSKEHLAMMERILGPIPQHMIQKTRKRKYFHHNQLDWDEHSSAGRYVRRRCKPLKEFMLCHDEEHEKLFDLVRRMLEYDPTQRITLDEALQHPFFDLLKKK
Chain of Serine/threonine-protein kinase MARK2 (Homo sapiens) (Q7KZI7 whole entry): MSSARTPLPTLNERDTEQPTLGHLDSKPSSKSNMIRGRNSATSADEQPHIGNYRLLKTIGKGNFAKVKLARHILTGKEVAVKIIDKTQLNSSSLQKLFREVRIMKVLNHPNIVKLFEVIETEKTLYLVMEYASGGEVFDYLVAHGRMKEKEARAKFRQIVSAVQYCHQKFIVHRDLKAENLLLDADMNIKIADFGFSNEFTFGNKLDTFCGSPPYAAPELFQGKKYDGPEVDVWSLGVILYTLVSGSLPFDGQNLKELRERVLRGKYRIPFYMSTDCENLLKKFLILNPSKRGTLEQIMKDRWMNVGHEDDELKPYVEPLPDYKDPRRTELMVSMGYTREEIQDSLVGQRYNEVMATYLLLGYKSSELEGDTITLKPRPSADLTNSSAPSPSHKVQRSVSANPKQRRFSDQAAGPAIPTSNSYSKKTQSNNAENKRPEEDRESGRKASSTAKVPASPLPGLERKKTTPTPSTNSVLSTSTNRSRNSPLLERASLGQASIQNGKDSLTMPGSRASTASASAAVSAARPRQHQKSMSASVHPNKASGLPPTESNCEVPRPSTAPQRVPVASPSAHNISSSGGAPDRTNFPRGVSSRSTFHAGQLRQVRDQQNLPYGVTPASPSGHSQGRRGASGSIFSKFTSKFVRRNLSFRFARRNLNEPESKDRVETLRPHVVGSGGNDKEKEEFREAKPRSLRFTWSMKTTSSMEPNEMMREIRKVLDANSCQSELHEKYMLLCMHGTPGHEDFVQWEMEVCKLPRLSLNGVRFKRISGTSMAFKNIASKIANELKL
Chain of Serine/threonine-protein kinase 35 (Homo sapiens) (Q8TDR2 whole entry): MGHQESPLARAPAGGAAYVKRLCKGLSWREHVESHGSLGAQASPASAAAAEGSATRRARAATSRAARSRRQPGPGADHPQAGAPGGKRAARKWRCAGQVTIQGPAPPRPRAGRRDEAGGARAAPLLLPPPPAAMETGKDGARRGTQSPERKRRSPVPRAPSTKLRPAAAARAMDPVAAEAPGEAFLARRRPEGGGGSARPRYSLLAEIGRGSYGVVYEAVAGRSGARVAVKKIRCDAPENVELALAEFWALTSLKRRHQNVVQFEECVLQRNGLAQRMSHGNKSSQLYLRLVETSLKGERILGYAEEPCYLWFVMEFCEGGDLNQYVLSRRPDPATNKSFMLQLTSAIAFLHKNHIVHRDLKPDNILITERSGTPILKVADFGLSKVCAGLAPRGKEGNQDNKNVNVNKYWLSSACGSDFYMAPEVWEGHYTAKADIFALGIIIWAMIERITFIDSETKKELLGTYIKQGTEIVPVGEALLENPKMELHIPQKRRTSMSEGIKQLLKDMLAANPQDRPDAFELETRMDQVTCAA

SMILES	residual activity [1]	residual activity [2]	residual activity [3]	inhibition [4]	residual activity [5]	residual activity [6]	residual activity [7]	residual activity [8]	residual activity [9]	residual activity [10]	residual activity [11]	residual activity [12]	inhibition [13]	residual activity [14]	residual activity [15]	residual activity [16]	residual activity [17]	residual activity [18]	inhibition [19]
CCc1ccccc1C(=O)Nc1n[nH]c2c(C)c(F)c(C3C(C#N)=C(C)N(C)C(C)=C3C#N)cc12 [BAY-3827]	100%	2.5%	96%	2.79%	100%	92%	100%	100%	100%	40%	100%	82%	10.6%	97%	75%	91%	100%	98%	20.5%
CC1=C(C#N)C(c2ccc3c(c2)c(NC(=O)c2ccccc2C)nn3C)C(C#N)=C(C)N1 [BAY-974]	87%	82%	96%	9.93%	91%	96%	100%	100%	76%	99%	95%	66%	20.7%	91%	69%	81%	86%	100%	17.7%
